In US6503935B1, “Imidazoles and related compounds as α1A agonists” (Abbott Laboratories, priority 1998, dated 2003):
Structures can show the parent of a compound that is named as a salt.

Tests used:
[1] = target: T1, α1B (rat spleen) (Rattus norvegicus, UniProt P15823); assay: Agonist contraction of smooth muscle tissue, rat spleen; type: cell-based; conditions: rat spleen; read-out: Agonist Tissue Response (pD2) α1B (rat spleen) (converted)
T1 construct: α1B (rat spleen) and α1D (rat aorta) receptors; from tissue; host or cells: rat spleen
T1 sequence (P15823 1-515): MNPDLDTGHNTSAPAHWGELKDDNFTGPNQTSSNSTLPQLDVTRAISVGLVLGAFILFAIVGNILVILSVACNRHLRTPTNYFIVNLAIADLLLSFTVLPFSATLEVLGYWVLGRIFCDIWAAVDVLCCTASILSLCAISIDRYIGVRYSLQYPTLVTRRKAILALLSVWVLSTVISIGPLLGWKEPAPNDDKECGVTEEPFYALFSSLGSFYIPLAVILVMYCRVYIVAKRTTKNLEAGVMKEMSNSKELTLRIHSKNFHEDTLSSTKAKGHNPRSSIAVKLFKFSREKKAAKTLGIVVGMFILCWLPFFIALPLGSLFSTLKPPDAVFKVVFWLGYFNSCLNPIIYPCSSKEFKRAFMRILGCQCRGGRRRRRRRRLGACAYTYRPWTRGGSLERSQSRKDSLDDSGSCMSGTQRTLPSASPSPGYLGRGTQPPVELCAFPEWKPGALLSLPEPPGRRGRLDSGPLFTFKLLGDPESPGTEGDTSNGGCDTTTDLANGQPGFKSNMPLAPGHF

[2] = system: Anesthetized Dogs; assay: Mean arterial pressure (MAP) in anesthetized dogs; type: in vivo, dog; conditions: iv dose causing a maximum increase in MAP of 20 mm Hg, anesthetized female dogs
Method in brief: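 Female dogs (12–15 kg) with carotid telemetry implants, thiopental 15 mg/kg i.v. then isoflurane (2.5 to 3 volume %) anesthesia; increasing i.v. doses of agonist with return to baseline between doses. MAP from telemetered arterial pressure; ED20 = dose raising MAP by 20 mm Hg, compared with IUP ED5 as selectivity ratio.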

[3] = target: T2, α1A (rat submaxillary gland) (Rattus norvegicus, UniProt P43140); assay: Radioligand binding with [3H]-prazosin, α1A; conditions: rat submaxillary gland, [3H]-prazosin
T2 construct: α1A (rat submaxillary gland); from tissue; host or cells: rat submaxillary gland
T2 sequence (P43140 1-466): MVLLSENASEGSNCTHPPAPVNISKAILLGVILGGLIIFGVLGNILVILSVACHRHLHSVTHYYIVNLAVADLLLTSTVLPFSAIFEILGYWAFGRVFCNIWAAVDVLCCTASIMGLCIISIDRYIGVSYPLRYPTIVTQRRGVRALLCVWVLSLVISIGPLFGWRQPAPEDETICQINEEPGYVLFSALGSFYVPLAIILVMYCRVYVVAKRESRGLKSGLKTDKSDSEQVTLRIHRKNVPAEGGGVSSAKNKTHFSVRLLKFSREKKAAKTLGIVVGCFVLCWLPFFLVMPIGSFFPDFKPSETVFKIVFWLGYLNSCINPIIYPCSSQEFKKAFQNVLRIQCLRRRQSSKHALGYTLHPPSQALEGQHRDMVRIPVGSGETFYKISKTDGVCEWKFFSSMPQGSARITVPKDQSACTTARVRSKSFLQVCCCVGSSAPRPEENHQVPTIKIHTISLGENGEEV
Method in brief: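 Radioligand binding with [3H]-prazosin: α1A from rat submaxillary gland; α1b hamster receptor and α1d rat receptor, each expressed in mouse fibroblasts.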

[4] = target: T3, α1D (rat aorta) (Rattus norvegicus, UniProt P23944); assay: Agonist contraction of smooth muscle tissue, rat aorta; type: cell-based; conditions: rat aorta, endothelium removed; for EC50: read-out: Agonist Tissue Response (pD2) α1D (rat aorta) (converted)
T3 construct: α1B (rat spleen) and α1D (rat aorta) receptors; from tissue; host or cells: rat aorta strips, endothelium removed
T3 sequence (P23944 1-561): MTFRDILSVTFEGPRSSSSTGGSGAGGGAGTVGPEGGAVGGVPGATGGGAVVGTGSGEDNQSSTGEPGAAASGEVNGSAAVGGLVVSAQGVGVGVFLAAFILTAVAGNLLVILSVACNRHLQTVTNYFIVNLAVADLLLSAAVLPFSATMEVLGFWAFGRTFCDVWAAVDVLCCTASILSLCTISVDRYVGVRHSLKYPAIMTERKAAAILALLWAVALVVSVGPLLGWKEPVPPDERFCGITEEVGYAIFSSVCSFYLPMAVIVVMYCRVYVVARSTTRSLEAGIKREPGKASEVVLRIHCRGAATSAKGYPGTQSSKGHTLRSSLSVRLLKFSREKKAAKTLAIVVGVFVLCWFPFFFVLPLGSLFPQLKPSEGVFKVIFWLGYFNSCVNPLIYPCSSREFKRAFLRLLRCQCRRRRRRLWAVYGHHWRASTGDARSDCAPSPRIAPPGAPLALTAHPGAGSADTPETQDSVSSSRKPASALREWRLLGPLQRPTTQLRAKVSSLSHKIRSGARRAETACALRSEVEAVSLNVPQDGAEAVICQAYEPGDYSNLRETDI

In the case of `CCS(=O)(=O)Nc1cccc2c1CCCC2c1c[nH]cn1.O=C(O)/C=C\C(=O)O` (single isomer, unassigned; (+)) [Example 33, (+)-N-[5-(1H-imidazol-4-yl)-5,6,7,8-tetrahydro-1-naphthalenyl]ethanesulfonamide, maleate], the EC50 [1] is reported as 3.8 µM, the “Mean MAP ED20” value ([2]; maleate) is reported as 34.0 nmol/kg and the Ki [3] is reported as 46.8 nM. The EC50 [4] was over 1 mM.
With `CCS(=O)(=O)Nc1cccc2c1CCCC2c1c[nH]cn1.O=C(O)/C=C\C(=O)O` (single isomer, unassigned; (-)) [Example 34, (−)-N-[5-(1H-imidazol-4-yl)-5,6,7,8-tetrahydro-1-naphthalenyl]ethanesulfonamide, maleate] the EC50 [1] was over 1000 µM, the “Mean MAP ED20” value ([2]; maleate) was over 1000 nmol/kg and the Ki [3] was 1300 nM. The “Agonist Tissue Response (pD2) α1D (rat aorta)” value [4] was under 3.00.
With `CCS(=O)(=O)Nc1cccc2c1CCCC2c1c[nH]cn1.O=C(O)/C=C\C(=O)O` (stereo not drawn) [Example 12, N-[5-(1H-imidazol-4-yl)-5,6,7,8-tetrahydro-1-naphthalenyl]ethanesulfonamide, maleate] the EC50 [1] was over 1000 µM, the “Mean MAP ED20” value [2] was 69.3 nmol/kg and the Ki [3] was 95.9 nM. It also gave an EC50 [4] of over 1 mM.
`CN(c1cccc2c1CCCC2c1c[nH]cn1)S(C)(=O)=O` (stereo not drawn) [Example 15, N-[5,6,7,8-tetrahydro-5-(1H-imidazol-4-yl)-1-naphthalenyl]-N-methylmethanesulfonmamide, maleate] was tested, and the EC50 [1] was 2.24 µM, the “Mean MAP ED20” value [2] was 225 nmol/kg and the Ki [3] was 204 nM. For the same compound, the EC50 [4] was over 1 mM.
With `O=C(Nc1cccc2c1CCCC2c1c[nH]cn1)C(F)(F)F` (stereo not drawn) [Example 17, 2,2,2-trifluoro-N-[5-(1H-imidazol-4-yl)-5,6,7,8-tetahydro-1-naphthalenyl]acetamide, maleate] the EC50 [1] was 3.39 µM, the “Mean MAP ED20” value [2] was 216 nmol/kg and the Ki [3] was 167 nM. It also gave an EC50 [4] of over 1 mM.
In the case of `CS(=O)(=O)Nc1cccc(Cc2c[nH]cn2)c1.O=C(O)/C=C\C(=O)O` [Example 21, N-[3-(1H-imidazol-4-ylmethyl)phenyl]methanesulfonamide, maleate], the EC50 [1] is reported as over 1000 µM, the “Mean MAP ED20” value [2] is reported as 52.3 nmol/kg and the Ki [3] is reported as 361 nM. The EC50 [4] was over 1 mM.
For `COc1ccc(NS(C)(=O)=O)c2c1C(c1c[nH]cn1)CCC2` (stereo not drawn) [Example 26, N-[5,6,7,8-tetrahydro-(1H-imidazol-4-yl)-4-methoxyy-1-naphthalenyl]methanesulfonamide, maleate], the EC50 [1] was 18.2 µM, the “Mean MAP ED20” value [2] was 1850 nmol/kg and the Ki [3] was 1680 nM. The EC50 [4] was over 1 mM.
In the case of `Cc1c(Cc2c[nH]cn2)cccc1NS(C)(=O)=O.O=C(O)/C=C\C(=O)O` [Example 28, N-[3-(1H-imidazol-4-ylmethyl)-2-methylphenyl]methanesulfonamide, maleate], the EC50 [1] is reported as 7.76 µM, the “Mean MAP ED20” value [2] is reported as 158 nmol/kg and the Ki [3] is reported as 525 nM. For the same compound, the EC50 [4] was over 1 mM.
`CCS(=O)(=O)Nc1cccc(Cc2c[nH]cn2)c1C.O=C(O)/C=C\C(=O)O` [Example 29, N-[3-(1H-imidazol-4-ylmethyl)-2-methylphenyl]ethanesulfonamide, maleate] was tested, and the EC50 [1] was over 1000 µM, the “Mean MAP ED20” value [2] was 202 nmol/kg and the Ki [3] was 258 nM. For the same compound, the EC50 [4] was over 1 mM.
`CC(c1cccc(NS(C)(=O)=O)c1)c1c[nH]cn1.O=C(O)/C=C\C(=O)O` (stereo not drawn) [Example 31, N-[3-[1-(1H-imidazol-4-yl)ethyl]phenyl]methanesulfonamide, maleate] was tested, and the EC50 [1] was over 1000 µM, the “Mean MAP ED20” value [2] was 234 nmol/kg and the Ki [3] was 837 nM. The EC50 [4] was over 1 mM.
`CS(=O)(=O)Nc1ccc(F)c2c1CCCC2c1c[nH]cn1.O=C(O)/C=C\C(=O)O` (stereo not drawn) [Example 44, N-[4-fluoro-5-(1H-imidazol-4-yl)-5,6,7,8-tetrahydro-1-naphthalenyl]methanesulfonamide, maleate] was tested, and the EC50 [1] was over 1000 µM, the “Mean MAP ED20” value [2] was 632 nmol/kg and the Ki [3] was 310 nM. For the same compound, the EC50 [4] was over 1 mM.
`C=C(c1cccc(NS(=O)(=O)CC)c1)c1c[nH]cn1` [Example 45, N-{3-[1-(1H-imidazol-4-yl)vinyl]phenyly}ethanesulfonamide, maleate] was tested, and the EC50 [1] was over 1000 µM, the “Mean MAP ED20” value [2] was 633 nmol/kg and the Ki [3] was 565 nM. The EC50 [4] was over 1 mM.
